# Assay results reported in PubChem BioAssay (NCI).
#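 Grown in 96-well plates, cells were treated for 48 hours with each compound at five concentrations. Insufficient inhibition: endpoint recorded as highest concentration tested. TGI is the concentration that stops growth completely.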
# Experiments:
# Assay in all cases: growth of human tumour cells (NCI), 48 h
# [1] = system: HOP-62 NSCLC
# [2] = system: CAKI-1 renal
# [3] = system: HCT-15 colon
# [4] = system: SF-295 CNS
# [5] = system: SNB-75 CNS
# [6] = system: NCI-H23 lung
# [7] = system: KM12 colon
# [8] = system: OVCAR-8 ovarian
# [9] = system: HCC-2998 colon
# [10] = system: MDA-MB-435
# [11] = system: DU-145 prostate
# [12] = system: UACC-257 melanoma
# [13] = system: TK-10 renal
# [14] = system: K-562 leukemia
# [15] = system: CCRF-CEM leukemia
# [16] = system: U251 CNS
# [17] = system: MOLT-4 leukemia
# [18] = system: SW-620 colon
# [19] = system: PC-3 prostate
# [20] = system: NCI-H226 lung
# [21] = system: HS 578T breast
# [22] = system: MCF7 breast
# [23] = system: MDA-N
# [24] = system: SNB-19 CNS
# [25] = system: EKVX NSCLC
# [26] = system: HL-60(TB) leukemia
# [27] = system: SK-OV-3 ovarian
# [28] = system: T-47D breast
# [29] = system: HCT-116 colon
# [30] = system: NCI-H522 lung
# [31] = system: SN12C renal
# [32] = system: SF-539 CNS
# [33] = system: 786-0 renal
# [34] = system: SR leukemia
# [35] = system: OVCAR-3 ovarian
# [36] = system: M14 melanoma
# [37] = system: RPMI-8226 leukemia
# [38] = system: BT-549 breast
# [39] = system: IGROV1 ovarian
# [40] = system: ACHN renal
# [41] = system: RXF 393 renal
# [42] = system: NCI-H460 lung
# [43] = system: A549 NSCLC
# [44] = system: SF-268 CNS
# [45] = system: OVCAR-4 ovarian
# [46] = system: NCI/ADR-RES ovarian
# [47] = system: UACC-62 melanoma
# [48] = system: SK-MEL-5 melanoma
# [49] = system: SK-MEL-28 melanoma
# [50] = system: UO-31 renal
# [51] = system: MDA-MB-231 breast
smiles,measurement,setting,value
O=C1/C(=C/c2ccc([N+](=O)[O-])cc2)Oc2cc(O)ccc21,TGI,[1],> 100 µM
same,TGI,[2],58.7 µM
same,TGI,[3],69.1 µM
same,TGI,[4],> 100 µM
same,TGI,[5],> 100 µM
same,TGI,[6],> 100 µM
same,TGI,[7],> 100 µM
same,TGI,[8],> 100 µM
same,TGI,[9],> 100 µM
same,TGI,[10],> 100 µM
same,TGI,[11],> 100 µM
same,TGI,[12],> 100 µM
same,TGI,[13],82.5 µM
same,TGI,[14],46.9 µM
same,TGI,[15],79.2 µM
same,TGI,[16],93 µM
same,TGI,[17],44.4 µM
same,TGI,[18],> 100 µM
same,TGI,[19],66.8 µM
same,TGI,[20],99.1 µM
same,TGI,[21],47.9 µM
same,TGI,[22],> 100 µM
same,TGI,[23],60.2 µM
same,TGI,[24],> 100 µM
same,TGI,[25],96.3 µM
same,TGI,[26],37.4 µM
same,TGI,[27],71.6 µM
same,TGI,[28],> 100 µM
same,TGI,[29],> 100 µM
same,TGI,[30],65.6 µM
same,TGI,[31],87.1 µM
same,TGI,[32],94.4 µM
same,TGI,[33],70.6 µM
same,TGI,[34],46.1 µM
same,TGI,[35],73.8 µM
same,TGI,[36],> 100 µM
same,TGI,[37],65.8 µM
same,TGI,[38],78.7 µM
same,TGI,[39],> 100 µM
same,TGI,[40],56.1 µM
same,TGI,[41],> 100 µM
same,TGI,[42],> 100 µM
same,TGI,[43],92.9 µM
same,TGI,[44],> 100 µM
same,TGI,[45],> 100 µM
same,TGI,[46],88.3 µM
same,TGI,[47],> 100 µM
same,TGI,[48],48 µM
same,TGI,[49],> 100 µM
same,TGI,[50],51 µM
same,TGI,[51],73.9 µM
